Measured values taken from publication PMC9323911, “Comparative Metabolomics Study of the Impact of Articaine and Lidocaine on the Metabolism of SH-SY5Y Neuronal Cells” (Metabolites, 2022).
Structures can show the parent of a compound that is named as a salt. Where two headings read alike, the source gives them in different places.

How the values were obtained:
[1] = system: SH-SY5Y human neuroblastoma cells; experiment: resazurin cell viability assay; assay type: cell-based; conditions: for IC50: Homo sapiens, SH-SY5Y, read-out: IC50 (cell viability)
Description: Undifferentiated SH-SY5Y human neuroblastoma cells (ATCC® CRL-2266) were cultured in DMEM:F12 medium supplemented with 10% FBS and 1% antibiotic (100 IU/mLof penicillin and 100 μg/mL of streptomycin sulfate). Cells were grown in 75 cm^2 bottles and incubated at 37 °C under a humidified atmosphere with 5% CO2 for 48 h, until reaching semiconfluency. All experiments were performed on cells between passages 4 to 8.
To assess cell viability, the resazurin test was used. This assay evaluates the ability of viable cells to reduce resazurin (blue color) to a fluorescent, pink-colored compound, resorufin. Briefly, the cells were plated in a 96-well plate 24 h before treatment, at a density of 4 × 10^4 cells/mL. […] Each LA was solubilized in complete DMEM:F12 medium. Subsequently, the medium was removed, the wells were washed with 5 mM PBS and the cells were incubated with 10% resazurin for 4 h. At the end of this period, the absorbance was measured at 570 nm (λ1) and at 600 nm (λ2) (Multiskan™ FC Microplate Photometer, Thermofisher). The experiment was performed in triplicate and the differences between the two wavelengths (λ1–λ2) were calculated. The results were expressed in % of cell viability in relation to control and analyzed in GraphPad Prism® 6.0.

[2] = system: SH-SY5Y cells; experiment: 1H NMR metabolic profiling of cell aqueous extracts; assay type: cell-based, human; conditions: for 2-Ketovaline, variation in relation to control / 2-Oxoisoleucine, variation in relation to control / ATP + ADP, variation in relation to control / Alanine, variation in relation to control / Asparagine, variation in relation to control / Aspartate, variation in relation to control / Creatine, variation in relation to control / Cystathionine, variation in relation to control / Formate, variation in relation to control / Glutamate, variation in relation to control / Glutamine, variation in relation to control / Glycerophosphocholine, variation in relation to control / Glycine, variation in relation to control / Histidine, variation in relation to control / Isobutyrate, variation in relation to control / Isoleucine, variation in relation to control / Lactate, variation in relation to control / Leucine, variation in relation to control / NAD+, variation in relation to control / Panthothenic, variation in relation to control / Phenylalanine, variation in relation to control / Phosphocholine, variation in relation to control / Phosphocreatine, variation in relation to control / Proline, variation in relation to control / UDP-GlcNAc, variation in relation to control / Valine, variation in relation to control / beta-Alanine, variation in relation to control / myo-Inositol, variation in relation to control: aqueous extract; for intracellular glutamate level (in words) / intracellular phosphocholine level (in words): vs control
Description: (§1) Afterward, the medium was collected and the dishes washed with cold PBS, immediately before the solvent extraction procedure described below. Unexposed cells were used as controls. Each assay comprised duplicates of each condition and three independent assays were performed, giving a total of 6 replicates per condition.
(§2) The culture medium was collected from each plate (including cell-free medium incubated under the same conditions) in conical tubes and centrifuged at 1000× g for 10 min. Furthermore, 300 µL of the supernatant were collected for protein precipitation, as described by Kostidis et al.. Briefly, 600 µL of 100% methanol (v/v) at −80 °C were added to the collected supernatant ([…]). […] The supernatant was transferred to another tube and vacuum dried (SpeedVac, Eppendorf, Hamburg, Germany). For extracting cellular metabolites, a biphasic extraction protocol (methanol:chloroform:water; 1:1:0.7) was used as previously described. The resulting polar extracts were dried under vacuum in a Speedvac concentrator, and the lipophilic extracts were dried under a nitrogen flow. All extracts were stored at −80 °C prior to NMR analysis.
(§3) For NMR analysis, dried aqueous and lipid extracts were dissolved, respectively, in 600 μL of deuterated phosphate buffer (PBS 100 mM, pH 7.4) containing 0.1 mM 3-(trimethylsilyl) propionic acid (TSP-d4), and 600 μL of deuterated chloroform containing 0.03% tetramethylsilane (TMS). […] Two-dimensional NMR spectra, namely, ^1H-^1H TOCSY, J-resolved and ^1H-^13C HSQC spectra, were also recorded for selected samples to aid metabolite identification. Signal assignment was based on matching 1D and 2D spectral information to reference spectra available in Chenomx 9.0 (Edmonton, AB, Canada), BBIOREFCODE-2–0–0 (Bruker Biospin, Rheinstetten, Germany) and HMDB.
Principal Component Analysis (PCA) and Partial Least Squares-Discriminant Analysis (PLS-DA) were applied and the results were visualized through factorial co-ordinates (‘scores’) and factorial contributions (‘loadings’) colored according to variable importance to the projection (VIP). For PLS-DA models, Q^2 and R^2 values, respectively reflecting predictive capability and explained variance, obtained from sevenfold internal cross validation, were used to assess the robustness of group discrimination.
(§4) To provide a quantitative measurement of metabolic variations, spectral integration and total area normalization of selected signals (vide Supplementary Table S1) were carried out in Amix-Viewer 3.9.15 (Bruker Biospin, Rheinstetten, Germany). For each metabolite, the percentage of variation (or fold change) in exposed samples was calculated relative to respective controls, along with the effect size (ES) and statistical significance (p-value). The variations with larger magnitude (|ES| > 0.8) were expressed in a heatmap.

[3] = system: SH-SY5Y cells; experiment: 1H NMR metabolic profiling of culture medium (consumption/excretion); assay type: cell-based, human; conditions: vs control
Description: as §1, §2, §3, §4

## CCCNC(C)C(=O)Nc1c(C)csc1C(=O)OC (centres unmarked) [ATC, Articaine hydrochloride]
[1]; 24 h exposure
  IC10 (concentration reducing cell viability by 10%): 1.2 mM
  IC50: 3 ± 0.2 mM
[1]; 20 min, 20 min exposure
  IC50: > 10 mM
[1]; 1 h exposure
  IC50: > 10 mM
[1]; 4 h exposure
  IC50: 5.4 ± 0.3 mM
[1]; shortest exposure durations (20 min and 1 h)
  IC50: > 10 mM
[2]; IC10, 24 h
  2-Ketovaline, variation in relation to control: 24.7%
  2-Oxoisoleucine, variation in relation to control: 33.8%
  ATP + ADP, variation in relation to control: -8.0%
  Alanine, variation in relation to control: 0.0%
  Asparagine, variation in relation to control: -24.6%
  Aspartate, variation in relation to control: -17.2%
  Creatine, variation in relation to control: 9.0%
  Cystathionine, variation in relation to control: 10.9%
  Formate, variation in relation to control: 0.0%
  Glutamate, variation in relation to control: -6.3%
  Glutamine, variation in relation to control: -10.8%
  Glycerophosphocholine, variation in relation to control: -11.3%
  Glycine, variation in relation to control: 0.0%
  Histidine, variation in relation to control: 29.6%
  Isobutyrate, variation in relation to control: 0.0%
  Isoleucine, variation in relation to control: 30.5%
  Lactate, variation in relation to control: 0.0%
  Leucine, variation in relation to control: 39.9%
  NAD+, variation in relation to control: 0.0%
  Panthothenic, variation in relation to control: 42.7%
  Phenylalanine, variation in relation to control: 43.6%
  Phosphocholine, variation in relation to control: 0.0%
  Phosphocreatine, variation in relation to control: 0.0%
  Proline, variation in relation to control: 0.0%
  UDP-GlcNAc, variation in relation to control: -18.7%
  Valine, variation in relation to control: 27.2%
  beta-Alanine, variation in relation to control: -7.4%
  myo-Inositol, variation in relation to control: -19.0%
[2]; IC50, 24 h
  2-Ketovaline, variation in relation to control: 28.3%
  2-Oxoisoleucine, variation in relation to control: 34.4%
  ATP + ADP, variation in relation to control: -14.0%
  Alanine, variation in relation to control: 21.3%
  Asparagine, variation in relation to control: 26.5%
  Aspartate, variation in relation to control: 23.7%
  Creatine, variation in relation to control: 14.7%
  Cystathionine, variation in relation to control: 0.0%
  Formate, variation in relation to control: 40.5%
  Glutamate, variation in relation to control: 25.8%
  Glutamine, variation in relation to control: 17.8%
  Glycerophosphocholine, variation in relation to control: -75.7%
  Glycine, variation in relation to control: 42.8%
  Histidine, variation in relation to control: 37.5%
  Isobutyrate, variation in relation to control: -78.2%
  Isoleucine, variation in relation to control: 44.5%
  Lactate, variation in relation to control: -17.5%
  Leucine, variation in relation to control: 60.3%
  NAD+, variation in relation to control: 11.9%
  Panthothenic, variation in relation to control: 40.0%
  Phenylalanine, variation in relation to control: 50.2%
  Phosphocholine, variation in relation to control: 0.0%
  Phosphocreatine, variation in relation to control: -18.9%
  Proline, variation in relation to control: -17.8%
  UDP-GlcNAc, variation in relation to control: -85.9%
  Valine, variation in relation to control: 44.8%
  beta-Alanine, variation in relation to control: -60.7%
  myo-Inositol, variation in relation to control: -42.6%
  intracellular glutamate level (in words): increased
  intracellular phosphocholine level (in words): not altered
[3]; IC10, 24 h
  pyruvate consumption: increased significantly
[3]; IC50, 24 h
  pyruvate consumption: no difference to controls

## CCN(CC)CC(=O)Nc1c(C)cccc1C [LDC, lidocaine hydrochloride]
[1]; 24 h exposure
  IC10 (concentration reducing cell viability by 10%): 1.2 mM
[1]; 20 min
  IC50: 7.3 ± 0.3 mM
[1]; 1 h
  IC50: 7.4 ± 0.3 mM
[1]; 4 h
  IC50: 5.7 ± 0.2 mM
[1]; 24 h
  IC50: 3.6 mM
[1]
  IC50: ~7 mM
[2]; IC10, 24 h
  2-Ketovaline, variation in relation to control: 0.0%
  2-Oxoisoleucine, variation in relation to control: 0.0%
  ATP + ADP, variation in relation to control: -10.4%
  Alanine, variation in relation to control: 0.0%
  Asparagine, variation in relation to control: -18.9%
  Aspartate, variation in relation to control: -12.9%
  Creatine, variation in relation to control: 24.9%
  Cystathionine, variation in relation to control: 12.1%
  Formate, variation in relation to control: 17.0%
  Glutamate, variation in relation to control: -16.3%
  Glutamine, variation in relation to control: -22.0%
  Glycerophosphocholine, variation in relation to control: -11.7%
  Glycine, variation in relation to control: 16.6%
  Histidine, variation in relation to control: 11.8%
  Isobutyrate, variation in relation to control: -14.4%
  Isoleucine, variation in relation to control: 18.2%
  Lactate, variation in relation to control: 0.0%
  Leucine, variation in relation to control: 33.4%
  NAD+, variation in relation to control: 0.0%
  Panthothenic, variation in relation to control: 11.9%
  Phenylalanine, variation in relation to control: 22.7%
  Phosphocholine, variation in relation to control: 14.1%
  Phosphocreatine, variation in relation to control: -16.1%
  Proline, variation in relation to control: -15.8%
  UDP-GlcNAc, variation in relation to control: -10.8%
  Valine, variation in relation to control: 15.5%
  beta-Alanine, variation in relation to control: -10.0%
  myo-Inositol, variation in relation to control: -16.9%
[2]; IC50, 24 h
  2-Ketovaline, variation in relation to control: 16.5%
  2-Oxoisoleucine, variation in relation to control: 21.6%
  ATP + ADP, variation in relation to control: -23.0%
  Alanine, variation in relation to control: 17.1%
  Asparagine, variation in relation to control: 27.8%
  Aspartate, variation in relation to control: 12.1%
  Creatine, variation in relation to control: 17.6%
  Cystathionine, variation in relation to control: -28.3%
  Formate, variation in relation to control: 58.8%
  Glutamate, variation in relation to control: 0.0%
  Glutamine, variation in relation to control: 43.0%
  Glycerophosphocholine, variation in relation to control: -33.4%
  Glycine, variation in relation to control: 48.8%
  Histidine, variation in relation to control: 22.5%
  Isoleucine, variation in relation to control: 33.4%
  Lactate, variation in relation to control: -12.4%
  Leucine, variation in relation to control: 54.2%
  NAD+, variation in relation to control: 16.7%
  Panthothenic, variation in relation to control: 14.7%
  Phenylalanine, variation in relation to control: 36.2%
  Phosphocholine, variation in relation to control: 23.7%
  Phosphocreatine, variation in relation to control: -42.3%
  Proline, variation in relation to control: -38.0%
  UDP-GlcNAc, variation in relation to control: -38.7%
  Valine, variation in relation to control: 33.9%
  beta-Alanine, variation in relation to control: -72.1%
  myo-Inositol, variation in relation to control: -50.6%
  intracellular glutamate level (in words): not altered
  intracellular phosphocholine level (in words): increased
[3]; IC10, 24 h
  pyruvate consumption: increased significantly
[3]; IC50, 24 h
  pyruvate consumption: no difference to controls
